Measured values: US12098145B2 (Libra Therapeutics, Inc., priority 2022, dated 2024)
Where two headings read alike, the source gives them in different places.

Molecular target: T1, TRPML1 (Homo sapiens, UniProt Q9GZU1)
T1 construct: expressed in transfected cells; host or cells: HEK T-REx cells stably expressing GCaMP6f and TRPML1
Test: Cellular TRPML1 assay (FLIPR, GCaMP6f calcium read-out)
Type: cell-based
Summary of the method: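 HEK T-REx cells stably expressing TRPML1 and GCaMP6f, seeded 24 h before in Optimem + 0.5% FBS. After ~10 min pre-incubation at room temperature, compounds in Ca2+-free Tyrode's buffer were injected on FLIPR Tetra (final DMSO 0.5%). Calcium fluorescence kinetics followed for 300 s.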

[1] = HEKT-REx/GCaMP6f/TRPML1 cells, FLIPR TETRA, kinetic response over 300 seconds, read-out: TRPML1 FLIPR pEC50 (converted)

T1 sequence (Q9GZU1 whole entry): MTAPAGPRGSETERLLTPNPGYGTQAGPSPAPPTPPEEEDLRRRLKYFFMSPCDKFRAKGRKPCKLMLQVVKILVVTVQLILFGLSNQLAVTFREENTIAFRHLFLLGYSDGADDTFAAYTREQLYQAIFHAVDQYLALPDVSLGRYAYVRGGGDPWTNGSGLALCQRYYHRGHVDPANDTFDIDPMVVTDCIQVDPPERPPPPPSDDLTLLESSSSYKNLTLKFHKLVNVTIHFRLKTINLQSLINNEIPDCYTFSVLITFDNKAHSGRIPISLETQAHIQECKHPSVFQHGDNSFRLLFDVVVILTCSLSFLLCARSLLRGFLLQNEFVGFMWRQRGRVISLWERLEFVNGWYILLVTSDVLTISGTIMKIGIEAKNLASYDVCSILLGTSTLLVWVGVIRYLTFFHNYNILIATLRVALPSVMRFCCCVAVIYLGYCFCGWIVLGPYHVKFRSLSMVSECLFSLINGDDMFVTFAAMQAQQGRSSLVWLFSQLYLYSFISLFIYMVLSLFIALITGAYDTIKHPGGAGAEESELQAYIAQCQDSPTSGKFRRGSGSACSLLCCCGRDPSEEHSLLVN

EC50 [1] | Structure (SMILES) | EC50
10 to 1000 nM | O=C(Nc1ccc(OC2CC3C[C@@H]3C2)c(F)c1)c1nc(N2CC3CCOC3C2)oc1CC(F)(F)F (stereo partly drawn) [Example 187, N-(4-(cis-bicyclo[3.1.0]hexan-3-yloxy)-3-fluorophenyl)-2-(hexahydro-5H-furo[2,3-c]pyrrol-5-yl)-5-(2,2,2-trifluoroethyl)oxazole-4-carboxamide] | 
10 to 1000 nM | O=C(Nc1cc(F)c(O[C@@H]2C[C@@H]3C[C@@H]3C2)c(F)c1)c1nc(N2CC3(CCOCC3)C2)oc1CC(F)(F)F [Example 188, N-(4-(cis-bicyclo[3.1.0]hexan-3-yloxy)-3,5-difluorophenyl)-2-(7-oxa-2-azaspiro[3.5]nonan-2-yl)-5-(2,2,2-trifluoroethyl)oxazole-4-carboxamide] | 
10 to 1000 nM | O=C(Nc1cc(F)c(O[C@@H]2C[C@@H]3C[C@@H]3C2)c(F)c1)c1nc(N2CC3(CCOC3)C2)oc1CC(F)(F)F [Example 189, N-(4-(cis-bicyclo[3.1.0]hexan-3-yloxy)-3,5-difluorophenyl)-2-(6-oxa-2-azaspiro[3.4]octan-2-yl)-5-(2,2,2-trifluoroethyl)oxazole-4-carboxamide] | 
1000 to 10000 nM | O=C(Nc1ccc(OCC2CC3CC3C2)c(F)c1)c1nc(N2CCCC2)oc1CC(F)(F)F (centres unmarked) [Example 190, N-(4-(bicyclo[3.1.0]hexan-3-ylmethoxy)-3-fluorophenyl)-2-(pyrrolidin-1-yl)-5-(2,2,2-trifluoroethyl)oxazole-4-carboxamide] | 
1000 to 10000 nM | CCC1(CC)CN(c2nc(C(=O)Nc3cnc(OC4CC5C[C@H]5C4)c(F)c3)c(CC(F)(F)F)o2)C1 (stereo partly drawn) [Example 191, N-(6-(cis-bicyclo[3.1.0]hexan-3-yloxy)-5-fluoropyridin-3-yl)-2-(3,3-diethylazetidin-1-yl)-5-(2,2,2-trifluoroethyl)oxazole-4-carboxamide] | 
1000 to 10000 nM | CCC1(CC)CN(c2nc(C(=O)Nc3cc(C)c(NC4CC5CC(C5)C4)c(F)c3)c(CC(F)(F)F)o2)C1 (centres unmarked) [Example 192, N-(4-(bicyclo[3.1.1]heptan-3-ylamino)-3-fluoro-5-methylphenyl)-2-(3,3-diethylazetidin-1-yl)-5-(2,2,2-trifluoroethyl)oxazole-4-carboxamide] | 
10000 to 100000 nM | Cc1cc(NC(=O)c2nc(N3CCCC3)oc2CC(F)(F)F)cc(F)c1NC1C2CCCC1CC2 (centres unmarked) [Example 194, N-(4-(bicyclo[3.2.1]octan-8-ylamino)-3-fluoro-5-methylphenyl)-2-(pyrrolidin-1-yl)-5-(2,2,2-trifluoroethyl)oxazole-4-carboxamide] | 
1000 to 10000 nM | O=C(Nc1cc(F)c(N2CCC3OCCC32)c(F)c1)c1nc(N2CCCC2)oc1CC(F)(F)F (centres unmarked) [Example 198, N-(3,5-difluoro-4-(hexahydro-4H-furo[3,2-b]pyrrol-4-yl)phenyl)-2-(pyrrolidin-1-yl)-5-(2,2,2-trifluoroethyl)oxazole-4-carboxamide] | 
10 to 1000 nM | CCC1(OC)CN(c2nc(C(=O)Nc3cc(F)c(N4CCC5CC5C4)c(F)c3)c(CC(F)(F)F)o2)C1 (centres unmarked) [Example 204, N-(4-(3-azabicyclo[4.1.0]heptan-3-yl)-3,5-difluorophenyl)-2-(3-ethyl-3-methoxyazetidin-1-yl)-5-(2,2,2-trifluoroethyl)oxazole-4-carboxamide] | 
1000 to 10000 nM | CCC1(OC)CN(c2nc(C(=O)Nc3cc(F)c(N4CCC5CCCC54)c(F)c3)c(CC(F)(F)F)o2)C1 (centres unmarked) [Example 205, N-(3,5-difluoro-4-(hexahydrocyclopenta[b]pyrrol-1(2H)-yl)phenyl)-2-(3-ethyl-3-methoxyazetidin-1-yl)-5-(2,2,2-trifluoroethyl)oxazole-4-carboxamide] | 
 | O=C(Nc1cc(F)c(N2CC3CC(C3)C2)c(F)c1)c1nc(N2CCC3(COC3)C2)oc1CC(F)(F)F [Example 208, N-(4-(3-azabicyclo[3.1.1]heptan-3-yl)-3,5-difluorophenyl)-2-(2-oxa-6-azaspiro[3.4]octan-6-yl)-5-(2,2,2-trifluoroethyl)oxazole-4-carboxamide] | 10 to 1000 nM
 | O=C(Nc1cc(F)c(N2CC3CC(C3)C2)c(F)c1)c1nc(N2CCCC2)oc1CC(F)(F)F [Example 209, N-(4-(3-azabicyclo[3.1.1]heptan-3-yl)-3,5-difluorophenyl)-2-(pyrrolidin-1-yl)-5-(2,2,2-trifluoroethyl)oxazole-4-carboxamide] | 10 to 1000 nM
 | O=C(Nc1cc(F)c(N2C3CCCC2CC3)c(F)c1)c1nc(N2CCCC2)oc1CC(F)(F)F [Example 210, N-(4-(8-azabicyclo[3.2.1]octan-8-yl)-3,5-difluorophenyl)-2-(pyrrolidin-1-yl)-5-(2,2,2-trifluoroethyl)oxazole-4-carboxamide] | 10 to 1000 nM
10 to 1000 nM | CCC1(CC)CN(c2nc(C(=O)Nc3cc(F)c(N4CCC5CC5C4)c(F)c3)c(CC(F)(F)F)o2)C1 (centres unmarked) [Example 211, N-(4-(3-azabicyclo[4.1.0]heptan-3-yl)-3,5-difluorophenyl)-2-(3,3-diethylazetidin-1-yl)-5-(2,2,2-trifluoroethyl)oxazole-4-carboxamide] | 
10 to 1000 nM | CCC1(CC)CN(c2nc(C(=O)Nc3ccc(N4CCC5CC5C4)c(F)c3)c(CC(F)(F)F)o2)C1 (centres unmarked) [Example 212, N-(4-(3-azabicyclo[4.1.0]heptan-3-yl)-3-fluorophenyl)-2-(3,3-diethylazetidin-1-yl)-5-(2,2,2-trifluoroethyl)oxazole-4-carboxamide] | 
10 to 1000 nM | CC1(C)CCCN(c2c(F)cc(NC(=O)c3nc(N4CCCC4)oc3CC(F)(F)F)cc2F)C1 [Example 213, N-(4-(3,3-dimethylpiperidin-1-yl)-3,5-difluorophenyl)-2-(pyrrolidin-1-yl)-5-(2,2,2-trifluoroethyl)oxazole-4-carboxamide] | 
10 to 1000 nM | O=C(Nc1cc(F)c(N2CCC3CCCC32)c(F)c1)c1nc(N2CCCC2)oc1CC(F)(F)F (centres unmarked) [Example 214, N-(3,5-difluoro-4-(hexahydrocyclopenta[b]pyrrol-1(2H)-yl)phenyl)-2-(pyrrolidin-1-yl)-5-(2,2,2-trifluoroethyl)oxazole-4-carboxamide] | 
10 to 1000 nM | CCC1(CC)CN(c2nc(C(=O)Nc3cc(F)c(N4CCCCC4)c(F)c3)c(CC(F)(F)F)o2)C1 [Example 215, 2-(3,3-diethylazetidin-1-yl)-N-(3,5-difluoro-4-(piperidin-1-yl)phenyl)-5-(2,2,2-trifluoroethyl)oxazole-4-carboxamide] | 
10 to 1000 nM | CCC1(CC)CN(c2nc(C(=O)Nc3ccc(N4CCCCC4)c(F)c3)c(CC(F)(F)F)o2)C1 [Example 216, 2-(3,3-diethylazetidin-1-yl)-N-(3-fluoro-4-(piperidin-1-yl)phenyl)-5-(2,2,2-trifluoroethyl)oxazole-4-carboxamide] | 
10000 to 100000 nM | Cc1cc(NC(=O)c2nc(N3CCCC3)oc2CC(F)(F)F)cc(F)c1N(C)C1CC2CC(C2)C1 (centres unmarked) [Example 217, N-(4-(bicyclo[3.1.1]heptan-3-yl(methyl)amino)-3-fluoro-5-methylphenyl)-2-(pyrrolidin-1-yl)-5-(2,2,2-trifluoroethyl)oxazole-4-carboxamide] | 
10000 to 100000 nM | O=C(Nc1cc(F)c(CN2CC3CC3C2)c(F)c1)c1nc(N2CCCC2)oc1CC(F)(F)F (centres unmarked) [Example 218, N-(4-{3-azabicyclo [3.1.0]hexan-3-ylmethyl}-3,5-difluorophenyl)-2-(pyrrolidin-1-yl)-5-(2,2,2-trifluoroethyl)-1,3-oxazole-4-carboxamide] | 
10 to 1000 nM | CCc1oc(N2CC(CC)(CO)C2)nc1C(=O)Nc1cc(F)c(O[C@@H]2C[C@@H]3C[C@@H]3C2)c(Cl)c1 [Example 220, N-(4-(cis-bicyclo[3.1.0]hexan-3-yloxy)-3-chloro-5-fluorophenyl)-5-ethyl-2-(3-ethyl-3-(hydroxymethyl)azetidin-1-yl)oxazole-4-carboxamide] | 
10 to 1000 nM | CCc1oc(N2CCCC2)nc1C(=O)Nc1cc(F)c(O[C@@H]2C[C@@H]3C[C@@H]3C2)c(Cl)c1 [Example 222, N-(4-(cis-bicyclo[3.1.0]hexan-3-yloxy)-3-chloro-5-fluorophenyl)-5-ethyl-2-(pyrrolidin-1-yl)oxazole-4-carboxamide] | 
10 to 1000 nM | CCc1oc(N2CC(C)(OC)C2)nc1C(=O)Nc1cc(C)c(O[C@@H]2C[C@@H]3C[C@@H]3C2)c(F)c1 [Example 226, N-(4-(cis-bicyclo[3.1.0]hexan-3-yloxy)-3-fluoro-5-methylphenyl)-5-ethyl-2-(3-methoxy-3-methylazetidin-1-yl)oxazole-4-carboxamide] | 
1000 to 10000 nM | CCc1oc(N2CCCOCC2)nc1C(=O)Nc1cc(F)c(O[C@@H]2C[C@@H]3C[C@@H]3C2)c(F)c1 [Example 231, N-(4-(cis-bicyclo[3.1.0]hexan-3-yloxy)-3,5-difluorophenyl)-5-ethyl-2-(1,4-oxazepan-4-yl)oxazole-4-carboxamide] | 
1000 to 10000 nM | CCc1oc(-n2cccn2)nc1C(=O)Nc1cc(F)c(O[C@@H]2C[C@@H]3C[C@@H]3C2)c(F)c1 [Example 232, N-(4-(cis-bicyclo[3.1.0]hexan-3-yloxy)-3,5-difluorophenyl)-5-ethyl-2-(1H-pyrazol-1-yl)oxazole-4-carboxamide] | 
1000 to 10000 nM | CCc1oc(N2CC3CCOC3C2)nc1C(=O)Nc1cc(F)c(OC2CC3C[C@H]3C2)c(F)c1 (stereo partly drawn) [Example 233, N-(4-(cis-bicyclo[3.1.0]hexan-3-yloxy)-3,5-difluorophenyl)-5-ethyl-2-(hexahydro-5H-furo[2,3-c]pyrrol-5-yl)oxazole-4-carboxamide] | 
1000 to 10000 nM | CCc1oc(N2CC(CC)(OC)C2)nc1C(=O)Nc1cc(F)c(OC2CCOC2)c(F)c1 (centres unmarked) [Example 234, N-(3,5-difluoro-4-((tetrahydrofuran-3-yl)oxy)phenyl)-5-ethyl-2-(3-ethyl-3-methoxyazetidin-1-yl)oxazole-4-carboxamide] | 

Structure (SMILES) | EC50 [1] | EC50
O=C(Nc1cc(F)c(N2C3CCCC2CC3)c(F)c1)c1nc(N2CCCOCC2)oc1CC(F)(F)F [Example 199, N-(4-(8-azabicyclo[3.2.1]octan-8-yl)-3,5-difluorophenyl)-2-(1,4-oxazepan-4-yl)-5-(2,2,2-trifluoroethyl)oxazole-4-carboxamide] | 1000 to 10000 nM | 
